The source of these data is the supplement of paper PMC11616607.

SMILES strings stand for the structures.

The first assay has as its system HOSE1C. Put plainly: drug sensitivity score (DSS) from 5-point dose-response viability curve (DSS (area-under-curve based score)); higher = more sensitive (stronger growth inhibition or killing); extreme values may be limits of the assay. Particulars: exposure time: 72 h; concentration range: 5 concentrations over 10,000-fold range. In short, it runs like this: (§1)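 Each cell line and drug received a drug sensitivity score from Breeze software, where higher means more sensitive. Zero stands for no response. Scores came from CellTiter-Glo viability readings of ovarian cancer and normal ovarian cells, 1,500 per well in 384-well plates, after 3 days at 37°C, 5% CO2 with drugs at five concentrations over a 10,000-fold range.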
In turn, `COc1ccc(-c2ccc3c(N4CCOC[C@@H]4C)nc(N4CCOC[C@@H]4C)nc3n2)cc1CO` [AZD8055] showed a drug sensitivity score of 20.7.

For the compound `N#Cc1ccc2[nH]c(O)c(-c3ccc(CN4CCOCC4)cn3)c2c1` [AZD-1080], the drug sensitivity score amounted to 0.

Regarding `Cc1ncc(-c2ccnc(Nc3ccc(S(C)(=O)=O)cc3)n2)n1C(C)C` [AZD-5438], the drug sensitivity score was 7.

The compound `Cc1cc([C@@H](C)Nc2ccccc2C(=O)O)c2nc(N3CCOCC3)cc(=O)n2c1` [AZD-6482] had a drug sensitivity score of 0.3.

Regarding `C[C@@H](Nc1cc(F)cc(F)c1)c1cc(C(=O)N(C)C)cc2c(=O)cc(N3CCOCC3)oc12` [AZD-8186], the drug sensitivity score was 0.1.

`CCN1CCN(Cc2ccc(Nc3ncc(F)c(-c4cc(F)c5nc(C)n(C(C)C)c5c4)n3)nc2)CC1` [Abemaciclib] gave a drug sensitivity score of 1.6.

On to `CN(C)Cc1c(C(=O)NCCOc2ccc(C(=O)NO)cc2)oc2ccccc12` [Abexinostat], for which the drug sensitivity score was determined as 24.1.

`C[C@]12CC[C@H](O)CC1=CC[C@@H]1[C@@H]2CC[C@]2(C)C(c3cccnc3)=CC[C@@H]12` [Abiraterone]: the drug sensitivity score is 0.1.

In the case of `CC#CC(=O)N1CCC[C@H]1c1nc(-c2ccc(C(=O)Nc3ccccn3)cc2)c2c(N)nccn12` [Acalabrutinib], the drug sensitivity score worked out at 0.

With `COc1cc(C)c(/C=C/C(C)=C/C=C/C(C)=C/C(=O)O)c(C)c1C` [Acitretin], the drug sensitivity score stood at 0.1.

As for `CN(C)C/C=C/C(=O)Nc1cc2c(Nc3ccc(F)c(Cl)c3)ncnc2cc1O[C@H]1CCOC1` [Afatinib], the drug sensitivity score is 0.

On to `Cn1ncc(Cl)c1-c1cc(C(=O)N[C@H](CN)Cc2cccc(F)c2)sc1Cl` [Afuresertib], for which the drug sensitivity score was 2.9.

The compound `COc1cccc2c1C(=O)c1c(O)c3c(c(O)c1C2=O)C[C@@](O)(/C(CO)=N/NC(=O)CCCCCN1C(=O)C=CC1=O)C[C@@H]3O[C@H]1C[C@H](N)[C@H](O)[C@H](C)O1` [Aldoxorubicin] had a drug sensitivity score of 6.8.

With `CCc1cc2c(cc1N1CCC(N3CCOCC3)CC1)C(C)(C)c1[nH]c3cc(C#N)ccc3c1C2=O` [Alectinib], the drug sensitivity score is 0.

As for `COc1cc(Nc2ncc3c(n2)-c2ccc(Cl)cc2C(c2c(F)cccc2OC)=NC3)ccc1C(=O)O` [Alisertib], the drug sensitivity score amounted to 8.9.

`Oc1ncnc2[nH]ncc12` [Allopurinol]: the drug sensitivity score was 0.

In turn, `Cc1nc(NC(=O)N2CCC[C@H]2C(N)=O)sc1-c1ccnc(C(C)(C)C(F)(F)F)c1` [Alpelisib] showed a drug sensitivity score of 2.2.

`O=C(Nc1cc(Oc2cc(F)c(NC(=O)C3(C(=O)Nc4ccc(F)cc4)CC3)cc2F)ccn1)C1CC1` [Altiratinib] showed a drug sensitivity score of 4.2.

The compound `CN1CC[C@H](c2c(O)cc(O)c3c(=O)cc(-c4ccccc4Cl)oc23)[C@H](O)C1` [Alvocidib] came in with a drug sensitivity score of 18.9.

As for `CCN(CC)CCNC(=O)c1c(C)[nH]c(/C=C2\C(=O)Nc3ccc(-c4csc(-c5ccccc5)n4)cc32)c1C` [Amcasertib], the drug sensitivity score came out at 8.8.

For the compound `CCC1(c2ccc(N)cc2)CCC(=O)NC1=O` (stereo unspecified) [Aminoglutethimide], the drug sensitivity score turned out to be 0.2.

Compound `COc1cc(NS(C)(=O)=O)ccc1Nc1c2ccccc2nc2ccccc12` [Amsacrine] came in with a drug sensitivity score of 13.7.

The compound `S=C(NCc1ccc2c(c1)OCO2)N1CCN(c2ncnc3c2oc2ccccc23)CC1` [Amuvatinib] had a drug sensitivity score of 0.

In turn, `O=C1CN2Cc3c(ccc(Cl)c3Cl)N=C2N1` [Anagrelide] gave a drug sensitivity score of 0.

`CC(C)(C#N)c1cc(Cn2cncn2)cc(C(C)(C)C#N)c1` [Anastrozole]: the drug sensitivity score turned out to be 0.

In turn, `CNC(=O)c1ccc(N2C(=S)N(c3cnc(C#N)c(C(F)(F)F)c3)C(=O)C23CCC3)cc1F` [Apalutamide] displayed a drug sensitivity score of 0.

Compound `N#CC1(c2ccc(NC(=O)c3cccnc3NCc3ccncc3)cc2)CCCC1` [Apatinib] showed a drug sensitivity score of 0.

Compound `O=C(Nc1ccc(OC(F)(F)Cl)cc1)c1cnc(N2CC[C@@H](O)C2)c(-c2cc[nH]n2)c1` [Asciminib] showed a drug sensitivity score of 0.

Compound `CC(C)c1c(C(=O)Nc2ccccc2)c(-c2ccccc2)c(-c2ccc(F)cc2)n1CC[C@@H](O)C[C@@H](O)CC(=O)O` [Atorvastatin] showed a drug sensitivity score of 10.1.

For the compound `CC(=O)OC[C@H]1O[C@@H]([S-])[C@H](OC(C)=O)[C@@H](OC(C)=O)[C@@H]1OC(C)=O.CCP(CC)CC.[Au+]` [Auranofin], the drug sensitivity score stood at 13.3.

Consider `CNC(=O)c1ccccc1Sc1ccc2c(/C=C/c3ccccn3)n[nH]c2c1` [Axitinib], for which the drug sensitivity score was found to be 1.9.

For the next assay, the system named is COV362. The description is as above. Particulars: exposure time: 72 h; concentration range: 5 concentrations over 10,000-fold range. In short, it runs like this:
as §1
Take `COc1ccc(-c2ccc3c(N4CCOC[C@@H]4C)nc(N4CCOC[C@@H]4C)nc3n2)cc1CO` [AZD8055]: the drug sensitivity score turned out to be 6.4.

For the compound `N#Cc1ccc2[nH]c(O)c(-c3ccc(CN4CCOCC4)cn3)c2c1` [AZD-1080], the drug sensitivity score is 0.

In the case of `Cc1ncc(-c2ccnc(Nc3ccc(S(C)(=O)=O)cc3)n2)n1C(C)C` [AZD-5438], the drug sensitivity score was 2.8.

Compound `Cc1cc([C@@H](C)Nc2ccccc2C(=O)O)c2nc(N3CCOCC3)cc(=O)n2c1` [AZD-6482] displayed a drug sensitivity score of 0.

`C[C@@H](Nc1cc(F)cc(F)c1)c1cc(C(=O)N(C)C)cc2c(=O)cc(N3CCOCC3)oc12` [AZD-8186] registered a drug sensitivity score of 0.

The compound `CCN1CCN(Cc2ccc(Nc3ncc(F)c(-c4cc(F)c5nc(C)n(C(C)C)c5c4)n3)nc2)CC1` [Abemaciclib] returned a drug sensitivity score of 1.5.

`CN(C)Cc1c(C(=O)NCCOc2ccc(C(=O)NO)cc2)oc2ccccc12` [Abexinostat] came in with a drug sensitivity score of 5.6.

Consider `C[C@]12CC[C@H](O)CC1=CC[C@@H]1[C@@H]2CC[C@]2(C)C(c3cccnc3)=CC[C@@H]12` [Abiraterone], for which the drug sensitivity score was 0.

For the compound `CC#CC(=O)N1CCC[C@H]1c1nc(-c2ccc(C(=O)Nc3ccccn3)cc2)c2c(N)nccn12` [Acalabrutinib], the drug sensitivity score is 0.3.

As to `COc1cc(C)c(/C=C/C(C)=C/C=C/C(C)=C/C(=O)O)c(C)c1C` [Acitretin], the drug sensitivity score was 0.

Compound `CN(C)C/C=C/C(=O)Nc1cc2c(Nc3ccc(F)c(Cl)c3)ncnc2cc1O[C@H]1CCOC1` [Afatinib] showed a drug sensitivity score of 1.3.

Turning to `Cn1ncc(Cl)c1-c1cc(C(=O)N[C@H](CN)Cc2cccc(F)c2)sc1Cl` [Afuresertib], the drug sensitivity score was 0.

`COc1cccc2c1C(=O)c1c(O)c3c(c(O)c1C2=O)C[C@@](O)(/C(CO)=N/NC(=O)CCCCCN1C(=O)C=CC1=O)C[C@@H]3O[C@H]1C[C@H](N)[C@H](O)[C@H](C)O1` [Aldoxorubicin] returned a drug sensitivity score of 2.2.

`CCc1cc2c(cc1N1CCC(N3CCOCC3)CC1)C(C)(C)c1[nH]c3cc(C#N)ccc3c1C2=O` [Alectinib] registered a drug sensitivity score of 0.

`COc1cc(Nc2ncc3c(n2)-c2ccc(Cl)cc2C(c2c(F)cccc2OC)=NC3)ccc1C(=O)O` [Alisertib] registered a drug sensitivity score of 0.
